Measurements published in a melting point compilation (Tetko et al.).

Compound	melting point [°C]
NCCc1cccc(OCCCc2ccccc2)c1	44 to 46
CCS(=O)(=O)N1CCC(C(=O)O)(c2ccccc2)CC1	203 to 205
O=c1[nH]c(CN2CCOCC2)nc2sc3c(c12)CCCC3	162 to 164
O=C1CC2(CCOCC2)CN1	132 to 134
CC(C)Cc1csc2nc(CC#N)[nH]c(=O)c12	218 to 220
Sc1ccc(Cl)cn1	214 to 216
O=C(O)CCc1cc(F)ccc1F	71 to 73
CCNC(=O)c1ccc(F)cc1Br	103 to 105
CC1CC1c1ccc(/C=C/C(=O)O)o1 (stereo not drawn)	73 to 75
O=C(CCl)c1ccc2c(c1)-c1cc(C(=O)CCl)ccc1C2	200 to 202
O=C(O)C1CC2CCCCC2N1C(=O)c1ccc(F)cc1 (stereo not drawn)	147 to 149
O=C(c1ccsc1)N1CCCNCC1	98 to 100
COc1cc(C=O)c2c(c1)CC(C)O2 (stereo not drawn)	71 to 73
COC(=O)CNC(=O)CCCl	59 to 61
O=C(O)CC1(CO)CC1	68 to 70
NC(=O)CC(N)=S	97 to 110
c1c[nH]c(C2CCCN2)c1 (stereo not drawn)	75 to 77
Cc1ccc(S(N)(=O)=O)s1	118 to 120
Cc1n[nH]c(C)c1C1COCCN1 (stereo not drawn)	127 to 129

Compound	melting point [°C]
OC(c1ccccc1)c1nccs1 (stereo not drawn)	99 to 101
Cn1cnn(CC(=O)O)c1=O	172 to 174
O=C(O)CCOc1ccccc1F	112 to 114
NC(=O)c1cnn2c3c(cnc12)CCOC3=O	289 to 291
NC(Cn1cccn1)=NO	80 to 82
CC(C)(C)OC(=O)N1CCCC(C(=O)NC2CCCNC2)C1 (stereo not drawn)	116 to 118
Nc1cccc(NC(=O)CN2CCCCCC2)c1	67 to 69
O=C(CO)Nc1ccc(Oc2ccccc2)cc1	149 to 151
O=C(O)CCc1ncc(-c2ccccc2Br)o1	180 to 182
O=C(CCCl)NC(=O)NCC(F)(F)F	145 to 147
O=C(O)C=Cc1cccc(OC2CCCCC2)c1	96 to 98
N#CCC(=O)c1cc(Cl)cc(Cl)c1	139 to 141
O=C(O)c1ccc(Cl)[nH]c1=O	224 to 226
O=C(O)Cc1ccc2c(c1)CCCC2	78 to 80
O=Cc1cc(Cl)c2c(c1)OCCCO2	78 to 82
CC(=O)c1ccc(S(=O)(=O)CC(=O)O)cc1F	149 to 151
CS(=O)(=O)CCS(=O)(=O)Cl	119 to 121
c1cc(NC2CCCCCC2)c2cccnc2c1	100 to 102
CCOC(=O)c1nc(Br)sc1NC	75 to 77

Further lines, results first:

melting point [°C]	Compound
163 to 165	Cc1c(C(N)=O)cccc1[N+](=O)[O-]
243 to 245	Cc1ccc2oc(C(=O)O)cc2c1
243 to 245	Nc1nnc(CCc2ccccc2)c(=O)n1N
194 to 196	Cc1ccc(-n2c(N)nc3cc(Br)ccc32)cc1
81 to 83	COC(=O)c1ccc(-c2nc(C)cs2)cc1
169 to 171	CCC(=O)Nc1ccc(O)cc1
69 to 71	Nc1cc(-c2ccccc2Cl)no1
134 to 136	Cc1nc(Cl)ccc1CC(=O)O
125 to 127	O=C(O)COc1cccc2cccnc12
188 to 192	O=C(CSc1nnc(S)s1)c1ccccc1
152 to 154	NC(=S)c1cccc(O)c1
72 to 74	O=C(c1ccccc1)c1ccccc1Br
188 to 190	Cc1ccc(C)c(Sc2ncccc2C(=O)O)c1
271 to 273	Cc1cc(N2C(=O)c3ccccc3C2=O)ccc1C(=O)O
135 to 137	CC(C)(C)n1cnc(N)n1
66 to 68	Cc1ccc(C#N)c(OC2CCCC2)c1
116 to 118	Cc1ccc(-n2nc(C(C)(C)C)cc2N)cc1
256 to 258	Cc1cc(N)[nH]c(=O)c1

melting point [°C]	Compound
173 to 175	O=C(O)c1ccc2c(c1)CCC2
265 to 267	CCOc1ccc(N2C(=O)c3ccc(C(=O)O)cc3C2=O)cc1
67 to 69	CC(O)c1ccc(Oc2ccc(Br)cc2)cc1 (stereo not drawn)
35 to 37	CC(C)c1noc(-c2ccnc(Cl)c2)n1
73 to 75	c1ccc2oc(-c3ccncc3)cc2c1
339 to 341	O=C(O)c1cc(NCc2ccccc2)nc2ccccc12
160 to 162	Cc1cccc(NC2=NC(=O)CS2)c1
99 to 101	CC(C)(C)Oc1c(F)cc(N)cc1F
70 to 72	COc1ccc2cc(C(C)C#N)ccc2c1 (stereo not drawn)
115 to 117	O=C(c1ccc(F)cc1)c1ccc(Cl)cc1
62 to 64	CS(=O)(=O)c1ccccc1N
125 to 127	Cc1cc(O)n(C(C)(C)C)n1
249 to 251	O=c1c2sccc2nc(S)n1Cc1ccccc1
289 to 291	Cc1nc(C)n(-c2ccc(C(=O)O)cc2)n1
91 to 93	CC(=O)CC(=O)Nc1cccc(C)c1C
95 to 97	CCNC(=O)COc1ccc(N)cc1
157 to 159	C=CCNC(=O)Nc1ccc(N)cc1
